The assay concerns PSMA-expressing LNCaP human prostate cancer cells. Kind of assay: In vitro toxicity of nanoparticles (MTT assay after 15 min exposure). Type of assay: cell-based. The following applies: 48 hrs after 15 min exposure, 100 nM docetaxel equivalent, read-out: inhibition of cell growth. As for the experimental part:
The cytotoxicity of the nontargeted particles in that study was ascribed to a combination of nonspecific uptake and to the expected nonspecific release of docetaxel from the particle into the media over the exposure period. […] Following determination of the amount of docetaxel loading in the particles, PSMA-expressing LNCaP human prostate cancer cells were exposed to equimolar amounts (i.e. 100 nM) of loaded nanoparticles or free docetaxel. To minimize the effects of nonspecific endocytosis, cells were only exposed to test compounds for 15 min at which time cells were washed and then placed in drug free media. Cell counts were determined by converting absorbance from MTT assay to cell number based on a standard curve of absorbance from MTT assay of known amounts of LNCaP cells. In this assay, 48 hrs following exposure, the growth of cells exposed to the nontargeted nanoPEG particles was inhibited by 65% while cell growth was inhibited 89% by docetaxel and 95% by the nanoPSMAi2 particles. […]
Cytotoxicity assays were performed as described previously (Denmeade, S. R., et al. J Natl Cancer Inst, 95: 990-1000, 2003). […] Cells were then incubated in media at 37° C. and at the end of 48 hours and 96 hours, effects on cell growth were determined using the MTT assay (Promega, WI) according to manufacturer's instructions.
In general terms: Tetrazolium dyes change colour on reduction, which living cells bring about.

Regarding `CC(=O)O[C@@]12CO[C@@H]1C[C@H](O)[C@@]1(C)C(=O)[C@H](O)C3=C(C)[C@@H](OC(=O)[C@H](O)[C@@H](NC(=O)OC(C)(C)C)c4ccccc4)C[C@@](O)([C@@H](OC(=O)c4ccccc4)[C@H]21)C3(C)C` [docetaxel], the inhibition at 0.1 µM was 89%.

As usually defined, the inhibition is the relative decrease from the control value, in per cent.

(Values after US10369113B2, “Prostate specific membrane antigen (PSMA) targeted nanoparticles for therapy of prostate cancer” (The Johns Hopkins University, priority 2007, dated 2019).)
